Laboratory results from ChEMBL document CHEMBL1201862, “PubChem BioAssay data set” (2004).
Active and inactive are the calls of the source. Rule as the data show it, for most assays here: actives have a measured EC50 and inactives only a lower limit.

Legend:
Cytochrome P450 3A4 = Cytochrome P450 3A4 (Homo sapiens, UniProt P08684); settings: Potency;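 also: confirmatory qHTS run detecting inhibitors and substrates of CYP3A4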
[1] = reduced cellular PGC1a acetyl-lysine signal – cell-based, cherry-picked samples, dose response (AID 720514); format: functional;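 also: potency may reflect raised or lowered acetylation signal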
[2] = microbe, parasite or virus in culture; format: functional; settings: Mycobacterium tuberculosis
[3] = HEK-293T viability loss after treatment – luminescence, T-cell screen hits, cytotoxicity control for TCR NF-kB inhibitor project, dose response (AID 489026); format: functional, cell-based;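 also: cells exposed to compound about 14 hours before the viability readout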
[4] = target: T1, Heat shock factor protein 1 (Mus musculus, UniProt P38532); assay: enhancement of HSF1-driven luciferase signal – cell-based, NIH3T3, luminescence, dose retest, confirmation (AID 435004); format: functional;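 also: stress induced by proteasome inhibitor MG132 added 30 min after compound; luciferase reporter driven by HSF1 response element in NIH3T3 cells; actives raise luminescence as potentiators of the MG132 stress response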
T1 sequence (P38532 whole entry): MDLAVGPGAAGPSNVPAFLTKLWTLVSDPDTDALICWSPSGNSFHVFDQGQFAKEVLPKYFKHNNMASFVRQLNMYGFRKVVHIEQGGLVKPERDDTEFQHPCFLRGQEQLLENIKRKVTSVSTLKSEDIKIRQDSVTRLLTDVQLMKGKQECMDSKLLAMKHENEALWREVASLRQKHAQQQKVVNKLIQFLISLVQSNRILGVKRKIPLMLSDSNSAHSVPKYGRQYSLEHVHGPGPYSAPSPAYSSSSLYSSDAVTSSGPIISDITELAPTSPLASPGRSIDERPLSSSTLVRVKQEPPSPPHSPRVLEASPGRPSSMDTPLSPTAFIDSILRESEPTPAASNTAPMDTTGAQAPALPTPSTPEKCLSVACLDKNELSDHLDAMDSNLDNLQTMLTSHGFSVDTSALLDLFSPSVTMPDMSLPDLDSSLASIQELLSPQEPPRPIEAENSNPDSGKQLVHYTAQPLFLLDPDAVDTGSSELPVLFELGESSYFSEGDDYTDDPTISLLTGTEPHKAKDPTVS

[5] = target: T2, Replicative DNA helicase DnaB (Mycobacterium tuberculosis, UniProt P9WMR3); assay: DnaB intein splicing inhibitors, dose response, biochemical, cell-free fluorescence (AID 449749); format: functional
T2 sequence (P9WMR3 whole entry): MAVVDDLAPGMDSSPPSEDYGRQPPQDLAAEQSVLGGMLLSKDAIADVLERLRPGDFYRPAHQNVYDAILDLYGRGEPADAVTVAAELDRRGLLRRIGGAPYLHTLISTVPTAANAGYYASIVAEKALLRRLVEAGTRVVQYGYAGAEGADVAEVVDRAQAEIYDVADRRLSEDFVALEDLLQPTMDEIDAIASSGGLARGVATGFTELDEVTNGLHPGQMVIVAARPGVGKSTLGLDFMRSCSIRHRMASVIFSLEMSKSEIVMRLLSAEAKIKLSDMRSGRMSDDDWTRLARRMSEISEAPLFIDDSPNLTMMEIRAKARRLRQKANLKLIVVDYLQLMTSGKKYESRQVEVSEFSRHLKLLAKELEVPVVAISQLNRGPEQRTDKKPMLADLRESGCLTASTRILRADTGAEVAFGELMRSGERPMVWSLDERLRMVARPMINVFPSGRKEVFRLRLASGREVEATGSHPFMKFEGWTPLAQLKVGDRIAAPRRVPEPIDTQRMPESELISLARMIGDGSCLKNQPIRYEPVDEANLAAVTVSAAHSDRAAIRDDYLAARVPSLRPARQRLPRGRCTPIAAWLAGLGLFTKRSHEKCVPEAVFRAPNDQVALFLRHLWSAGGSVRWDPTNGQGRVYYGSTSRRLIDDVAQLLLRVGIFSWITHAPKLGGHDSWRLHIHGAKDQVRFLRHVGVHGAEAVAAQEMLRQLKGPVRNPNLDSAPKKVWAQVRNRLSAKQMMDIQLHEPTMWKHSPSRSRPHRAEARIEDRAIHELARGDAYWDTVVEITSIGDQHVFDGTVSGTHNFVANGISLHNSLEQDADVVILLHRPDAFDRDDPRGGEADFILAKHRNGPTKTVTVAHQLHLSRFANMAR

Protein RecA = target: T3, Protein RecA (Mycobacterium tuberculosis, UniProt P9WHJ3); assay: Fluorescence Cell-Free Homogeneous Dose Retest to Identify Inhibitors of RecA-Intein Splicing Activity. [Related pubchem assays (depositor defined):AID2097, AID2223, AID489010, AID492950]; format: functional
T3 sequence (P9WHJ3 whole entry): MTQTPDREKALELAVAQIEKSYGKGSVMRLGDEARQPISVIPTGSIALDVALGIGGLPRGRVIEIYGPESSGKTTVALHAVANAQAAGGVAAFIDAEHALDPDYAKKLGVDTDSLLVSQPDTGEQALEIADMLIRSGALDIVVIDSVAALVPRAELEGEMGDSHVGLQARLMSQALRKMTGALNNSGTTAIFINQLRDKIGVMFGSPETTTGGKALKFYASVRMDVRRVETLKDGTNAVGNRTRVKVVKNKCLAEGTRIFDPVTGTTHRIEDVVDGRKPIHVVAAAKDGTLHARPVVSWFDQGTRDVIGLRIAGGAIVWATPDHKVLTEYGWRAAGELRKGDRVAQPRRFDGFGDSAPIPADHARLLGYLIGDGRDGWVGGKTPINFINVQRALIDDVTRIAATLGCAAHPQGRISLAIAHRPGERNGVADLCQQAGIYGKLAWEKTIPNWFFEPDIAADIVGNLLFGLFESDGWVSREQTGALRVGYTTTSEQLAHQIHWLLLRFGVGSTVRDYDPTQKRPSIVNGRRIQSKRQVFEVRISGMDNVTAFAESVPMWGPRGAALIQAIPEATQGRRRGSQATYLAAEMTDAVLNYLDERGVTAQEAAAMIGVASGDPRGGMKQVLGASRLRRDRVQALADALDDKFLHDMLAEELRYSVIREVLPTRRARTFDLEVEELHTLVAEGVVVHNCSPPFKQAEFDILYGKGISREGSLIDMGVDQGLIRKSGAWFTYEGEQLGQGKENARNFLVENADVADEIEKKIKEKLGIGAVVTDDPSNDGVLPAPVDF

[6] = NIH-3T3 fibroblast cytotoxicity, dose response, cytotoxicity control, cell-based, fluorescence, Alamar Blue, secondary assay (AID 2327); format: functional;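 also: NIH-3T3 mouse fibroblasts cultured with fluconazole at 8 µg/mL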
cells [7] = format: functional, cell-based
[8] = fluconazole-exposed Candida albicans growth modulators – fluorescence, retest, confirmation (AID 2467); format: functional, cell-based
cells [9] = format: functional, cell-based; remark: listed apart in the source
[10] = Trypanosoma cruzi growth suppression in host cells – NIH3T3 host cells, beta-gal luminescence, confirmation (AID 2044); format: functional, cell-based;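 also: intracellular parasites grown in NIH/3T3 mouse fibroblasts as host cells; luminescent beta-galactosidase reporter signal from transgenic T. cruzi replicating inside host cells; inhibitors lower the luminescence signal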
[11] = NIH3T3 cell viability loss – ATP luminescence, mouse fibroblasts, counter-screen, dose response (AID 2010); format: functional, cell-based;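 also: cells exposed to compound for about 90 hours before reading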
[12] = target: T4, DNA repair protein RAD52 homolog (Homo sapiens, UniProt P43351); format: functional, biochemical
T4 sequence (P43351 whole entry): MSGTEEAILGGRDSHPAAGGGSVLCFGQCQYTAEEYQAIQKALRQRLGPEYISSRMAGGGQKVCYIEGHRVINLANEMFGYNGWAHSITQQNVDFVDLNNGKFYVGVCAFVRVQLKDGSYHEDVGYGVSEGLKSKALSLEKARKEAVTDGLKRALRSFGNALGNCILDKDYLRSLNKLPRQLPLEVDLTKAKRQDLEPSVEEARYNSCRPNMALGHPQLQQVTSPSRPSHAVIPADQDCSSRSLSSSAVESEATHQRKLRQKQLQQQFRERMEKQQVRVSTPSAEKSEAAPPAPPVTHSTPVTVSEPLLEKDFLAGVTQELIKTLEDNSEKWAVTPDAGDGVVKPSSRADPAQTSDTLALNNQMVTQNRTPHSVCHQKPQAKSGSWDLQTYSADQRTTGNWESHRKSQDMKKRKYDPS

[13] = target: T5, Histone-lysine N-methyltransferase NSD2 (Homo sapiens, UniProt O96028); format: biochemical
T5 sequence (O96028 whole entry): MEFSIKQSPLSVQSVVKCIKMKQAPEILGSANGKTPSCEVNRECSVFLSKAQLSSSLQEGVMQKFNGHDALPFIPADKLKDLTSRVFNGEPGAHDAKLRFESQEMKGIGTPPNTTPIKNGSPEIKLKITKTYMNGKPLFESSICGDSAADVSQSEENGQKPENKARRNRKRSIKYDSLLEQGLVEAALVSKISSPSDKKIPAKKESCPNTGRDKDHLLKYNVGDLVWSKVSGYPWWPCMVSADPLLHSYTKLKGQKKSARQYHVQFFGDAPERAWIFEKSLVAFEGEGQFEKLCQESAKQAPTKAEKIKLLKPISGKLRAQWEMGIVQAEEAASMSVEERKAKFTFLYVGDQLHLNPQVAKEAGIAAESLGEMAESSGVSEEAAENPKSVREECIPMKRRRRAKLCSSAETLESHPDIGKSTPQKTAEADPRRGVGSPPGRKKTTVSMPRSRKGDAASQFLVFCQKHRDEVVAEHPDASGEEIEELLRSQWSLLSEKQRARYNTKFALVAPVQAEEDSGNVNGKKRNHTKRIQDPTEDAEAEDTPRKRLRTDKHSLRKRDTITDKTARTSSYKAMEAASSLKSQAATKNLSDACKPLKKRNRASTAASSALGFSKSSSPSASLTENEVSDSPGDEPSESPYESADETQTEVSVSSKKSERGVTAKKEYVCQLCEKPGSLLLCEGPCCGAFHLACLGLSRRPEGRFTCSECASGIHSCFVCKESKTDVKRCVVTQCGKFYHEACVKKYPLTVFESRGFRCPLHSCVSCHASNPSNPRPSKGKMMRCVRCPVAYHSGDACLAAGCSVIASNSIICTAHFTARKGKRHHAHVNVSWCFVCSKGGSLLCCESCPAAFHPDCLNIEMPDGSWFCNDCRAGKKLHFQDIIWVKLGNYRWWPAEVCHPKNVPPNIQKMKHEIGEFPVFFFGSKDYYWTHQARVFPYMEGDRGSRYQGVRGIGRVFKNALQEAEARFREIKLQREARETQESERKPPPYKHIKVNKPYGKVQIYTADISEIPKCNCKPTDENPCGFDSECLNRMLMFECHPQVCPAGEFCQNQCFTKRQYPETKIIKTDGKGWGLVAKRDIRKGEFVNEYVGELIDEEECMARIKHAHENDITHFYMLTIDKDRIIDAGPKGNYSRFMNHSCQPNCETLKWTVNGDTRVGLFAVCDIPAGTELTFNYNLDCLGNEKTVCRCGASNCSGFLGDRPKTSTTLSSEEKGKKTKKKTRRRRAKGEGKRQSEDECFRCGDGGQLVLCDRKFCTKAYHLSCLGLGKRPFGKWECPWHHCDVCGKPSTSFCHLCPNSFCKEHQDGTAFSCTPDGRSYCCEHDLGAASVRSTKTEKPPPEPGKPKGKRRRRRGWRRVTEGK

Chain of Cytochrome P450 3A4 (P08684 whole entry): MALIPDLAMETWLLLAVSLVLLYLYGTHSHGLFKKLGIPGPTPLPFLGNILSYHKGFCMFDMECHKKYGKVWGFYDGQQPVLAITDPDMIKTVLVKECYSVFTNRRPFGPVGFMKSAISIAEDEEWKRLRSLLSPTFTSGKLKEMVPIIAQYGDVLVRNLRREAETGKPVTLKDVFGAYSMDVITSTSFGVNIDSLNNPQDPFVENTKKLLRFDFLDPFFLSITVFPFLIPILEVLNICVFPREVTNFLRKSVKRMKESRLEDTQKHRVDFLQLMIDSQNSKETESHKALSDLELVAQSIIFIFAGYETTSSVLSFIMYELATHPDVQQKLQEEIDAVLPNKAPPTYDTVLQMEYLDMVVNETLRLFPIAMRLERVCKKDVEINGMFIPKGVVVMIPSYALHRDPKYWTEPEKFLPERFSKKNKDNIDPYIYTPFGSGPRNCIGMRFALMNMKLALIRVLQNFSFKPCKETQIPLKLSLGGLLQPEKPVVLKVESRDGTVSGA

SMILES: Cc1nc(NC2CCCCC2)c2nc(-c3ccccc3)n(CCCN3CCOCC3)c2n1
- AC50 (Cytochrome P450 3A4): 5.01 µM (inconclusive)

SMILES: C[C@@H]1CN([C@H](C)CO)C(=O)c2cc(C3=CCCCC3)cnc2O[C@@H]1CN(C)Cc1ccccc1
- AC50 [1]: 28 µM (active)

SMILES: CCCSc1nnc(Sc2nnnn2-c2ccccc2)s1
- CC50 [2]: 6.83 µM (active)
- IC50 [3]: > 80 µM (inactive)
- EC50 [4]: 22 µM (active)
- AC50 [5]: 12.5 µM (active)
- EC50 (Protein RecA): 14.5 µM (active)
- AC50 [1]: 0.771 µM (active)

SMILES: O=C(c1ccc(Cl)cc1)C(Cn1cncn1)C(Sc1ccccc1)c1ccccc1 (stereo not given)
- AC50 [1]: 13 µM (active)

SMILES: CC(=O)N1CCC(=NNC(=O)c2cc3ccccc3cc2O)CC1
- EC50 [6]: > 150 µM (inactive)
- EC50 (cells [7]): > 350 µM (not active)
- EC50 [8]: > 38 µM (not active)
- EC50 (cells [9]): 22.2 µM (active)

SMILES: COC(=O)[C@@H]1C[C@H]2CC[C@H](O)C[C@H]2N1Cc1ccc(C)s1
- AC50 (Cytochrome P450 3A4): 15.8 µM (inconclusive)

SMILES: CCOC(=O)c1sc(=S)n(-c2ccccc2)c1C
- EC50 (cells [7]): > 350 µM (not active)
- EC50 (cells [9]): > 350 µM (not active)

SMILES: FC(F)(F)c1ccc(CN2C[C@@H]3C(c4ccc(Cl)nc4)C4(c5ccccc5)CC3(C4)[C@H]2c2ccccc2)cc1 (stereo not given in full)
- AC50 (Cytochrome P450 3A4): 20 µM (inconclusive)

SMILES: CCN(CCCNC(=O)CCNC(=O)Cn1ccc2ccccc2c1=O)c1ccccc1
- EC50 (cells [7]): > 350 µM (not active)
- EC50 (cells [9]): > 350 µM (not active)

SMILES: CC1CCN(C(=O)CS(=O)(=O)Cc2ccccc2)CC1
- EC50 (cells [7]): > 350 µM (not active)
- EC50 (cells [9]): 273 µM (active)

SMILES: CCCCCCn1nc(C(=O)Nc2nc3c(s2)CCCC3)c2ccccc2c1=O
- EC50 (cells [7]): > 350 µM (not active)
- EC50 (cells [9]): 115 µM (active)

SMILES: CC(=O)Oc1ccc2c(c1C(C)C)CCC1C(C)(C)CCC[C@@]21C (stereo not given in full)
- AC50 (Cytochrome P450 3A4): 39.8 µM (inconclusive)

SMILES: CCN(CC)CCNc1ncnc2c1sc1nc(N3CCCC3)c3c(c12)CC(C)(C)OC3
- EC50 [10]: 2.86 µM (active)
- EC50 [11]: 10.2 µM (active)
- AC50 [12]: 4.72 µM (active)
- AC50 [13]: 19.7 µM (active)

SMILES: Cc1cc(C)cc(N(CC(=O)Nc2ccccc2C(=O)N2CCOCC2)S(C)(=O)=O)c1
- EC50 (cells [7]): > 350 µM (not active)
- EC50 (cells [9]): > 350 µM (not active)
